Data taken from ChEMBL document CHEMBL5058649, “Data for DCP probe BAY 1816032” (2022).

How the values were obtained:
[1] = target: Muscarinic acetylcholine receptor M3 (Homo sapiens) (UniProt P20309); details: Compound concentration 10.0 uM
[2] = target: Casein kinase I isoform gamma-2 (Homo sapiens) (UniProt P78368); assay: CSNK1G2 DiscoveRx kinase panel; details: Compound concentration 1.0 uM
[3] = target: Serine/threonine-protein kinase Nek5 (Homo sapiens) (UniProt Q6P3R8); assay: NEK5 DiscoveRx kinase panel; details: Compound concentration 1.0 uM
[4] = target: Discoidin domain-containing receptor 2 (Homo sapiens) (UniProt Q16832); assay: DDR2 DiscoveRx kinase panel; details: Compound concentration 1.0 uM
[5] = target: Serine/threonine-protein kinase Nek1 (Homo sapiens) (UniProt Q96PY6); assay: NEK1 DiscoveRx kinase panel; details: Compound concentration 1.0 uM
[6] = target: Tyrosine-protein kinase Mer (Homo sapiens) (UniProt Q12866); assay: MERTK DiscoveRx kinase panel; details: Compound concentration 1.0 uM
[7] = target: Alpha-2C adrenergic receptor (Homo sapiens, UniProt P18825); assay: GPCRScan assay: inhibition of Alpha2C; set-up: radioligand conc. used [nm] 0.5 – 1.0, parental cells stable MDCK
Sequence of Alpha-2C adrenergic receptor (P18825 whole entry): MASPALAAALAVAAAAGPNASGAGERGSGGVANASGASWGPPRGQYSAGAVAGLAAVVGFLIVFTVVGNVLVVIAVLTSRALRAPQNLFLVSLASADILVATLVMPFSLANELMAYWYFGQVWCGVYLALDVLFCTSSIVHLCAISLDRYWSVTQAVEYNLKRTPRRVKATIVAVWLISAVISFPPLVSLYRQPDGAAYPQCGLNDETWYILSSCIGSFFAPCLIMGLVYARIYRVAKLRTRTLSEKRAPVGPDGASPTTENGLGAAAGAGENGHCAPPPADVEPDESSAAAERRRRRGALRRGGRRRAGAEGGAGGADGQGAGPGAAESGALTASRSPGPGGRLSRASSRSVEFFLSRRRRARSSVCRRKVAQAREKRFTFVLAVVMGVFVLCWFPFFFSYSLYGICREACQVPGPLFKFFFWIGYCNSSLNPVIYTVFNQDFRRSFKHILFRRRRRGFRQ

[8] = target: Epidermal growth factor receptor (Homo sapiens) (UniProt P00533); assay: EGFR DiscoveRx kinase panel; details: Compound concentration 1.0 uM
Sequence of Epidermal growth factor receptor (Homo sapiens) (P00533 whole entry): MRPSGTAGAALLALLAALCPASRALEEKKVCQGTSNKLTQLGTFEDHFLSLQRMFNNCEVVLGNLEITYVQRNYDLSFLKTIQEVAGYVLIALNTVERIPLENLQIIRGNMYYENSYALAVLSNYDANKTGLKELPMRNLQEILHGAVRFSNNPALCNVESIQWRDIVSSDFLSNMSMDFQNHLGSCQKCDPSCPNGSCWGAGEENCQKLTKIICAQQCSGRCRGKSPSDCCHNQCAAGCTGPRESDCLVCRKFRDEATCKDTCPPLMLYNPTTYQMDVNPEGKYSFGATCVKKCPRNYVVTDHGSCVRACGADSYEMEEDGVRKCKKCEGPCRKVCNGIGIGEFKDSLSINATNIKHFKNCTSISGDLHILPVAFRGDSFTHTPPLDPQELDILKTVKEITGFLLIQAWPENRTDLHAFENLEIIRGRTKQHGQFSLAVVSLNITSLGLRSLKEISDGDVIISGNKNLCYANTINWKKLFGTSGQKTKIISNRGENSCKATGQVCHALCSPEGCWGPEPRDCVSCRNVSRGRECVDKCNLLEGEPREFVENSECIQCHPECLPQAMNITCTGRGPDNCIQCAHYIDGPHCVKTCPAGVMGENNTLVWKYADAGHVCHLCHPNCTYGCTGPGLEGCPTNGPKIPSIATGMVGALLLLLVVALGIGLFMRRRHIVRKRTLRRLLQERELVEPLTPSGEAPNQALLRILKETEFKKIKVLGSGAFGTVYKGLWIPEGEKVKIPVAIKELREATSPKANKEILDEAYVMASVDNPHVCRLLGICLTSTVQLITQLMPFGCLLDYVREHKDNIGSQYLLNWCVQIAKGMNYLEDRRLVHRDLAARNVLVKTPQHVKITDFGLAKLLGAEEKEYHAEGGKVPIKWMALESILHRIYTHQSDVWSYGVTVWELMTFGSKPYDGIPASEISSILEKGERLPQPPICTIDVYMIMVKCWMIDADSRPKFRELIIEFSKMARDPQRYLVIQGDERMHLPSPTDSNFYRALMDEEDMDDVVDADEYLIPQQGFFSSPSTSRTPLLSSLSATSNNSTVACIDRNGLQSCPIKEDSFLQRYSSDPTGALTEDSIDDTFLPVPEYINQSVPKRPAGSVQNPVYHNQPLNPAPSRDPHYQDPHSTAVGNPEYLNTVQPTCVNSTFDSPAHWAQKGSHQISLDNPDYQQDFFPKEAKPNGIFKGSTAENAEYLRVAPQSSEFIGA

[9] = target: 5-hydroxytryptamine receptor 2A (Homo sapiens) (UniProt P28223); assay: Serotonin (5-Hydroxytryptamine) 5-HT2A Eurofins-Panlabs radioligand binding assay; details: Compound concentration 10.0 uM
[10] = target: Serine/threonine-protein kinase NLK (Homo sapiens) (UniProt Q9UBE8); assay: NLK DiscoveRx kinase panel; details: Compound concentration 1.0 uM
[11] = target: L-type calcium channel, dihydropyridine site (Cav1.2 alpha-1C) (Homo sapiens, UniProt Q13936); assay: Inhibition of Calcium Channel L-Type, Dihydropyridine at 10 µM in the Eurofins-Panlabs radioligand binding assay (Eurofins_assay_214600); set-up: ligand concentration 0.1 nM, non-specific ligand with concentration 1 µM Nitrendipine, incubation time 90 min, incubation temperature 25 °C; details: Wistar, rat, rat cerebral cortex preparation, probe [3H] Nitrendipine; compound concentration 10 uM; target entry is the homologue from another species
[12] = target: Serine/threonine-protein kinase mTOR (Homo sapiens) (UniProt P42345); assay: MTOR DiscoveRx kinase panel; details: Compound concentration 1.0 uM
[13] = target: Casein kinase I isoform alpha (Homo sapiens) (UniProt P48729); assay: CSNK1A1 DiscoveRx kinase panel; details: Compound concentration 1.0 uM
[14] = target: Cyclin-dependent kinase-like 3 (Homo sapiens) (UniProt Q8IVW4); assay: CDKL3 DiscoveRx kinase panel; details: Compound concentration 1.0 uM
Sequence of Cyclin-dependent kinase-like 3 (Homo sapiens) (Q8IVW4 whole entry, looked up): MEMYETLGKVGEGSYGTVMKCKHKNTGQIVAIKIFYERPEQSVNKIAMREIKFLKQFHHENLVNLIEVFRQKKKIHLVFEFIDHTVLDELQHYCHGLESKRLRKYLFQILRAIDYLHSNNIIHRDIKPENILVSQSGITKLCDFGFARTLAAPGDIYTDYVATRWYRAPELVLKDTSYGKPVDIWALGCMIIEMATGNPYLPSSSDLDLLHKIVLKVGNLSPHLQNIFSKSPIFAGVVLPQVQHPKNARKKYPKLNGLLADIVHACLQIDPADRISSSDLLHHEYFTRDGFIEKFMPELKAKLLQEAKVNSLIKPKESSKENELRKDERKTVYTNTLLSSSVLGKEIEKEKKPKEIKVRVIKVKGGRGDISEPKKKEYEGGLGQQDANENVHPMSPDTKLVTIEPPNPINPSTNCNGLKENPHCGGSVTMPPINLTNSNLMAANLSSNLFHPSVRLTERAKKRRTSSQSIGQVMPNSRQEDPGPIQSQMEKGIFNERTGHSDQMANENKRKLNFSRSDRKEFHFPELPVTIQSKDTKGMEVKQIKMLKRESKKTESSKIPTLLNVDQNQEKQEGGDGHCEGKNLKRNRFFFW

[15] = target: Atypical kinase COQ8A, mitochondrial (Homo sapiens) (UniProt Q8NI60); assay: ADCK3 DiscoveRx kinase panel; details: Compound concentration 1.0 uM
[16] = target: Mast/stem cell growth factor receptor Kit (Homo sapiens) (UniProt P10721); assay: KIT DiscoveRx kinase panel; details: Compound concentration 1.0 uM
[17] = target: Serine/threonine-protein kinase 17A (Homo sapiens) (UniProt Q9UEE5); assay: DRAK1 DiscoveRx kinase panel; details: Compound concentration 1.0 uM
[18] = target: Tyrosine-protein kinase Fyn (Homo sapiens) (UniProt P06241); assay: FYN DiscoveRx kinase panel; details: Compound concentration 1.0 uM
Sequence of Tyrosine-protein kinase Fyn (Homo sapiens) (P06241 2-537 limits assumed): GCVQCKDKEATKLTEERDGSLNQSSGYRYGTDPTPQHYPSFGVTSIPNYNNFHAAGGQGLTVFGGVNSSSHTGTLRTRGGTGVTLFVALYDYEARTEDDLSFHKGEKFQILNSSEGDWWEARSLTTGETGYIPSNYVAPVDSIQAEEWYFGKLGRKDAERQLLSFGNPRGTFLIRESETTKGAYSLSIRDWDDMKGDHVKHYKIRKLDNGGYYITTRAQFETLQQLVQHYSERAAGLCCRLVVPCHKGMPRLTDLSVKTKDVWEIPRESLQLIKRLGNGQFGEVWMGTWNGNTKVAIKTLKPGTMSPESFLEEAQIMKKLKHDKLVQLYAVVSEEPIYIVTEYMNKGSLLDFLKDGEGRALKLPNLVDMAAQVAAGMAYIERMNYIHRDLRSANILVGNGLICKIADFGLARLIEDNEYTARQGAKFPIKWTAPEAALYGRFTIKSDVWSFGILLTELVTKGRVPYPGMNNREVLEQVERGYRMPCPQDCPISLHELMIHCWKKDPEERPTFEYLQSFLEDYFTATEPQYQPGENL

[19] = target: Serine/threonine-protein kinase Nek10 (Homo sapiens) (UniProt Q6ZWH5); assay: NEK10 DiscoveRx kinase panel; details: Compound concentration 1.0 uM
[20] = target: Myosin light chain kinase 2, skeletal/cardiac muscle (Homo sapiens) (UniProt Q9H1R3); assay: MYLK2 DiscoveRx kinase panel; details: Compound concentration 1.0 uM
[21] = target: Tyrosine-protein kinase JAK1 (Homo sapiens) (UniProt P23458); assay: JAK1(JH1domain-catalytic) DiscoveRx kinase panel; details: Compound concentration 1.0 uM
[22] = target: Serine/threonine-protein kinase 25 (Homo sapiens) (UniProt O00506); assay: YSK1 DiscoveRx kinase panel; details: Compound concentration 1.0 uM
[23] = target: Cyclin-dependent kinase 11A (Homo sapiens) (UniProt Q9UQ88); assay: CDC2L2 DiscoveRx kinase panel; details: Compound concentration 1.0 uM
Sequence of Cyclin-dependent kinase 11A (Homo sapiens) (Q9UQ88 whole entry): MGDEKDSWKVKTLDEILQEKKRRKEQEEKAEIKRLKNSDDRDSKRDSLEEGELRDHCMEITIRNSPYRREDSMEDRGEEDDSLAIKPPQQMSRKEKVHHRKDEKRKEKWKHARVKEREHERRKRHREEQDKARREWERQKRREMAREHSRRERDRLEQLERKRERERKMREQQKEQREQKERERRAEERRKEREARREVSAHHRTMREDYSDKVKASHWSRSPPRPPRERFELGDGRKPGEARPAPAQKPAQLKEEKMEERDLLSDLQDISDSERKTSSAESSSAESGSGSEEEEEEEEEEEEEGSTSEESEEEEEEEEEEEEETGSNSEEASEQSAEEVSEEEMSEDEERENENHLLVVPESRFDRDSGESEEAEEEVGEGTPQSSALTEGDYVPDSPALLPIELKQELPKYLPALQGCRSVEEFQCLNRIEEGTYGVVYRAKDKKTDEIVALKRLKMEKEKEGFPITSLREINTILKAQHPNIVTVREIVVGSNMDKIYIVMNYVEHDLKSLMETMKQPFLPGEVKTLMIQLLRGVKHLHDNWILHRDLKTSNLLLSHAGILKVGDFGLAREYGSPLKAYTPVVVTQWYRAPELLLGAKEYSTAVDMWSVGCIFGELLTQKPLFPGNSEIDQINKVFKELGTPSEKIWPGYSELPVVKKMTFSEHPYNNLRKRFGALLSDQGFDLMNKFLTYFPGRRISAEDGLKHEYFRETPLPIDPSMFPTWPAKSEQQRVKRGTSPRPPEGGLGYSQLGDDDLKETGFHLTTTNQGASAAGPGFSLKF

[24] = target: Ribosomal protein S6 kinase alpha-6 (Homo sapiens) (UniProt Q9UK32); assay: RSK4(Kin.Dom.1-N-terminal) DiscoveRx kinase panel; details: Compound concentration 1.0 uM
Sequence of Ribosomal protein S6 kinase alpha-6 (Homo sapiens) (Q9UK32 whole entry): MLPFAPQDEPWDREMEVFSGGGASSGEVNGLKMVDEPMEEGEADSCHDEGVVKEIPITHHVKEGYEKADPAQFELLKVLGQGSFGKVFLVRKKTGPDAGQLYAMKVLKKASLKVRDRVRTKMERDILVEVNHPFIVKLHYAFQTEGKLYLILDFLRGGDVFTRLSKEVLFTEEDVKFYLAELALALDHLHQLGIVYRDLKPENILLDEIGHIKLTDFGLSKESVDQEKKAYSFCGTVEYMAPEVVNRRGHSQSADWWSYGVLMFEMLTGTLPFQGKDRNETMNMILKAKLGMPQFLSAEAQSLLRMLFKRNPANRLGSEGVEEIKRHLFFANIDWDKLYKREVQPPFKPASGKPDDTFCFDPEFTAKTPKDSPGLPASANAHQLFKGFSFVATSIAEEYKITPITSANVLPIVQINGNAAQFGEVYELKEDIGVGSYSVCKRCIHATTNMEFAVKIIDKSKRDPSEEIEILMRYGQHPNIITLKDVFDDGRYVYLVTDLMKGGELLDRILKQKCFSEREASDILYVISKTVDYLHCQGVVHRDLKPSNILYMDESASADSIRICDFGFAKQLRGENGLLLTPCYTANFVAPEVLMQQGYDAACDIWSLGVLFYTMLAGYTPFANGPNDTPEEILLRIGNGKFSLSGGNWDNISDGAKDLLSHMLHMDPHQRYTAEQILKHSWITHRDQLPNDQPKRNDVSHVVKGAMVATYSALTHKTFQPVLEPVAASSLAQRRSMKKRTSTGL

[25] = target: Ephrin type-A receptor 8 (Homo sapiens) (UniProt P29322); assay: EPHA8 DiscoveRx kinase panel; details: Compound concentration 1.0 uM
[26] = target: Serine/threonine-protein kinase PLK4 (Homo sapiens) (UniProt O00444); assay: PLK4 DiscoveRx kinase panel; details: Compound concentration 1.0 uM
[27] = target: Ephrin type-A receptor 1 (Homo sapiens) (UniProt P21709); assay: EPHA1 DiscoveRx kinase panel; details: Compound concentration 1.0 uM
[28] = target: Ribosomal protein S6 kinase alpha-6 (Homo sapiens) (UniProt Q9UK32); assay: RSK4(Kin.Dom.2-C-terminal) DiscoveRx kinase panel; details: Compound concentration 1.0 uM
[29] = target: Serine/threonine-protein kinase 24 (Homo sapiens) (UniProt Q9Y6E0); assay: MST3 DiscoveRx kinase panel; details: Compound concentration 1.0 uM
[30] = target: Muscle, skeletal receptor tyrosine-protein kinase (Homo sapiens) (UniProt O15146); assay: MUSK DiscoveRx kinase panel; details: Compound concentration 1.0 uM
[31] = target: Mitogen-activated protein kinase 4 (Homo sapiens) (UniProt P31152); assay: ERK4 DiscoveRx kinase panel; details: Compound concentration 1.0 uM
[32] = target: Cyclin-dependent kinase 19 (Homo sapiens) (UniProt Q9BWU1); assay: CDK11 DiscoveRx kinase panel; details: Compound concentration 1.0 uM
[33] = target: Histamine H1 receptor (Homo sapiens) (UniProt P35367); details: Compound concentration 10.0 uM
[34] = target: Beta-2 adrenergic receptor (Homo sapiens) (UniProt P07550); details: Compound concentration 10.0 uM
[35] = target: Dual specificity protein kinase TTK (Homo sapiens) (UniProt P33981); assay: TTK DiscoveRx kinase panel; details: Compound concentration 1.0 uM
[36] = target: Mitogen-activated protein kinase 6 (Homo sapiens) (UniProt Q16659); assay: ERK3 DiscoveRx kinase panel; details: Compound concentration 1.0 uM
[37] = target: Tyrosine-protein kinase ABL2 (Homo sapiens) (UniProt P42684); assay: ABL2 DiscoveRx kinase panel; details: Compound concentration 1.0 uM
[38] = target: Megakaryocyte-associated tyrosine-protein kinase (Homo sapiens) (UniProt P42679); assay: CTK DiscoveRx kinase panel; details: Compound concentration 1.0 uM
[39] = target: Platelet-derived growth factor receptor beta (Homo sapiens) (UniProt P09619); assay: PDGFRB DiscoveRx kinase panel; details: Compound concentration 1.0 uM
[40] = target: Mitogen-activated protein kinase kinase kinase 13 (Homo sapiens) (UniProt O43283); assay: LZK DiscoveRx kinase panel; details: Compound concentration 1.0 uM
[41] = target: Sodium-dependent dopamine transporter (Homo sapiens, UniProt Q01959); details: Compound concentration 10.0 uM
[42] = target: B2 bradykinin receptor (Homo sapiens) (UniProt P30411); assay: Bradykinin B2 Eurofins-Panlabs radioligand binding assay; details: Compound concentration 10.0 uM
[43] = target: Ephrin type-B receptor 3 (Homo sapiens) (UniProt P54753); assay: EPHB3 DiscoveRx kinase panel; details: Compound concentration 1.0 uM
[44] = target: Dual specificity protein kinase CLK3 (Homo sapiens) (UniProt P49761); assay: CLK3 DiscoveRx kinase panel; details: Compound concentration 1.0 uM
[45] = target: Calcium/calmodulin-dependent protein kinase kinase 2 (Homo sapiens) (UniProt Q96RR4); assay: CAMKK2 DiscoveRx kinase panel; details: Compound concentration 1.0 uM
[46] = target: Phosphatidylinositol 4,5-bisphosphate 3-kinase catalytic subunit alpha isoform (Homo sapiens) (UniProt P42336); assay: PIK3CA DiscoveRx kinase panel; details: Compound concentration 1.0 uM
[47] = target: Maternal embryonic leucine zipper kinase (Homo sapiens) (UniProt Q14680); assay: MELK DiscoveRx kinase panel; details: Compound concentration 1.0 uM
[48] = target: Serine/threonine-protein kinase 33 (Homo sapiens) (UniProt Q9BYT3); assay: STK33 DiscoveRx kinase panel; details: Compound concentration 1.0 uM
[49] = target: Tyrosine-protein kinase BTK (Homo sapiens) (UniProt Q06187); assay: BTK DiscoveRx kinase panel; details: Compound concentration 1.0 uM

Sequence of Casein kinase I isoform gamma-2 (Homo sapiens) (P78368 whole entry, looked up, canonical isoform): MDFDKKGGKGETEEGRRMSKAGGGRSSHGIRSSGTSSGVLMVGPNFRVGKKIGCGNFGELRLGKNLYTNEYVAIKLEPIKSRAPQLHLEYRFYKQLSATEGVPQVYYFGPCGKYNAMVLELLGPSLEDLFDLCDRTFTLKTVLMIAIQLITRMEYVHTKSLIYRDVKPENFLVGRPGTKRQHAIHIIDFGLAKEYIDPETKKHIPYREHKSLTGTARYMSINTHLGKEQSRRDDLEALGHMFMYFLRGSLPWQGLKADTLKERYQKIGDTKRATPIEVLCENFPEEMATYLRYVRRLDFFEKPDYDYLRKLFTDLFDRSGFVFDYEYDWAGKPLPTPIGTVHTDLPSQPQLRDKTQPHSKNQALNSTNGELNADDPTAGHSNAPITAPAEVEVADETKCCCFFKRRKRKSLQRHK

Structure (SMILES): COc1cnccc1Nc1nc(-c2nn(Cc3c(F)cc(OCCO)cc3F)c3ccccc23)ncc1OC
- inhibition [1]: -5%
- residual activity [2]: 78%
- residual activity [3]: 88%
- residual activity [4]: 93%
- residual activity [5]: 78%
- residual activity [6]: 83%
- Ki [7]: > 10 µM
- pKi [7]: < 5
- residual activity [8]: 100%
- inhibition [9]: 22%
- residual activity [10]: 88%
- inhibition at 90 min, 10 µM [11]: 8% (not active)
- residual activity [12]: 100%
- residual activity [13]: 99%
- residual activity [14]: 89%
- residual activity [15]: 98%
- residual activity [16]: 82%
- residual activity [17]: 95%
- residual activity [18]: 89%
- residual activity [19]: 100%
- residual activity [20]: 69%
- residual activity [21]: 90%
- residual activity [22]: 76%
- residual activity [23]: 100%
- residual activity [24]: 100%
- residual activity [25]: 100%
- residual activity [26]: 100%
- residual activity [27]: 65%
- residual activity [28]: 100%
- residual activity [29]: 100%
- residual activity [30]: 93%
- residual activity [31]: 96%
- residual activity [32]: 78%
- inhibition [33]: 16.9%
- inhibition [34]: 10%
- residual activity [35]: 62%
- residual activity [36]: 93%
- residual activity [37]: 100%
- residual activity [38]: 97%
- residual activity [39]: 77%
- residual activity [40]: 53%
- inhibition [41]: -5%
- inhibition [42]: 0%
- residual activity [43]: 95%
- residual activity [44]: 100%
- residual activity [45]: 100%
- residual activity [46]: 100%
- residual activity [47]: 84%
- residual activity [48]: 100%
- residual activity [49]: 100%
